SMILES strings stand for the structures.

The assay relates to MV-4-11 cells. Briefly: Gene expression microarray analysis (Affymetrix PrimeView) and GSEA. It counts as cell-based, human. The note with it: ProbeSet 11733176_x_at; LIST B.

With `Nc1ccc(-c2cccs2)cc1NC(=O)c1ccc2c(c1)cc(C1CC1)n2CCN1CCOCC1` [ACY-1035], the “RFU, ZNF507” value was found to be 24.05 RFU.
